In PubChem BioAssay AID328 (DTP/NCI, 2004):
Several values for one entry are separate records, joined by “and”; a condition that tells them apart may be missing. Equal values may be shown once. Toxic doses and inconclusive results are not listed.

System: BDF1 mice, P388 leukemia ip, median survival T/C
Experiment: NCI In Vivo Anticancer Drug Screen. Data for tumor model P388 Leukemia (intraperitoneal) in B6D2F1 (BDF1) mice
Details: endpoint: median survival time, higher = longer survival
Method in brief: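 Transplantable tumour in mice; compound vs vehicle dosing; survival scored; ratio of treated to control reported.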

[1] = dose: 25.0 mg/kg/injection, schedule: Q01DX010 (ip), vehicle: saline
[2] = dose: 50.0 mg/kg/injection, schedule: Q01DX010 (ip), vehicle: saline
[3] = dose: 100.0 mg/kg/injection, schedule: Q01DX010 (ip), vehicle: saline
[4] = dose: 100.0 mg/kg/injection, schedule: Q04DX003 (ip), vehicle: saline
[5] = dose: 200.0 mg/kg/injection, schedule: Q04DX003 (ip), vehicle: saline
[6] = dose: 100.0 mg/kg/injection, schedule: Q04DX003 (ip), vehicle: saline with Tween-80
[7] = dose: 200.0 mg/kg/injection, schedule: Q04DX003 (ip), vehicle: saline with Tween-80
[8] = dose: 400.0 mg/kg/injection, schedule: Q04DX003 (ip), vehicle: saline with Tween-80
[9] = dose: 50.0 mg/kg/injection, schedule: Q01DX009 (ip), vehicle: saline with Tween-80
[10] = dose: 50.0 mg/kg/injection, schedule: Q04DX003 (ip), vehicle: saline with Tween-80
[11] = dose: 100.0 mg/kg/injection, schedule: Q01DX009 (ip), vehicle: saline with Tween-80
[12] = dose: 100.0 mg/kg/injection, schedule: Q04DX003 (ip), vehicle: Klucel (hydroxypropylcellulose) (HPC)
[13] = dose: 25.0 mg/kg/injection, schedule: Q01DX009 (ip), vehicle: Klucel (hydroxypropylcellulose) (HPC)
[14] = dose: 50.0 mg/kg/injection, schedule: Q01DX009 (ip), vehicle: Klucel (hydroxypropylcellulose) (HPC)
[15] = dose: 100.0 mg/kg/injection, schedule: Q01DX009 (ip), vehicle: Klucel (hydroxypropylcellulose) (HPC)
[16] = dose: 3.12 mg/kg/injection, schedule: Q01DX009 (ip), vehicle: water
[17] = dose: 6.25 mg/kg/injection, schedule: Q01DX009 (ip), vehicle: water

With `Nc1nncs1` the T/C (dose: 7.8 mg/kg/injection, schedule: Q01DX010 (ip), vehicle: saline) was 118 % of control, the T/C (dose: 12.5 mg/kg/injection, schedule: Q01DX010 (ip), vehicle: saline) was 100 % of control and the T/C (dose: 15.6 mg/kg/injection, schedule: Q01DX010 (ip), vehicle: saline) was 154 % of control. For the same molecule, the T/C [1] was 163 % of control, the T/C (dose: 25.0 mg/kg/injection, schedule: Q04DX003 (ip), vehicle: saline) was 118 % of control and the T/C [2] was 190 % of control. For the same molecule, the T/C [3] was 100 % of control, the T/C [4] was 172 % of control and the T/C (dose: 108.0 mg/kg/injection, schedule: Q04DX003 (ip), vehicle: saline) was 154 % of control. The T/C (dose: 173.0 mg/kg/injection, schedule: Q04DX003 (ip), vehicle: other) was 179 % of control, the T/C (dose: 180.0 mg/kg/injection, schedule: Q04DX003 (ip), vehicle: saline) was 208 % of control and the T/C [5] was 181 % of control. For the same molecule, the T/C (dose: 288.0 mg/kg/injection, schedule: Q04DX003 (ip), vehicle: other) was 212 % of control.

For `CCSC(C#N)=C(c1ccccc1)c1ccccc1`, the T/C [6] was 103 % of control, the T/C [7] was 94 % of control and the T/C [8] was 92 % of control.

With `COc1ccc(C2CCc3cc(OC)c(OC)cc3C2=O)cc1OC` (stereo not drawn) the T/C (dose: 20.0 mg/kg/injection, schedule: Q01DX009 (ip), vehicle: saline with Tween-80) was 87 % of control, the T/C (dose: 80.0 mg/kg/injection, schedule: Q01DX009 (ip), vehicle: saline with Tween-80) was 91 % of control and the T/C (dose: 120.0 mg/kg/injection, schedule: Q01DX009 (ip), vehicle: saline with Tween-80) was 87 % of control.

With `C=CCCCCn1c2ccccc2c2c(C)c3cnccc3c(C)c21` the T/C [6] was 109 % of control, the T/C [7] was 100 % of control and the T/C [8] was 118 % of control.

`COc1cc(/C=C2\C(=O)NC(=O)N(c3ccccc3)C2=O)cc(OC)c1OC` was tested, and the T/C (dose: 25.0 mg/kg/injection, schedule: Q01DX009 (ip), vehicle: saline with Tween-80) was 109 % of control, the T/C [9] was 118 % of control and the T/C [10] was 100 % of control. For the same molecule, the T/C [11] was 118 % of control, the T/C [6] was 108 % of control and the T/C [7] was 112 % of control.

With `Clc1ccc(OCc2sc3ccc(Cl)cc3c2CN2CCCCC2)cc1` the T/C (dose: 25.0 mg/kg/injection, schedule: Q04DX003 (ip), vehicle: saline with Tween-80) was 100 % of control, the T/C [10] was 90 % of control and the T/C [6] was 90 % of control.

In the case of `CSCC(NC(=O)OCc1ccccc1)C(=O)O` (stereo not drawn), the T/C [10] is reported as 95 % of control, the T/C [6] is reported as 109 % of control and the T/C [7] is reported as 100 % of control.

With `c1ccc(C23c4ccccc4C(=NC4CCCCC4)C2N3C2CCCCC2)cc1` (stereo not drawn) the T/C [12] was 90 % of control and the T/C (dose: 200.0 mg/kg/injection, schedule: Q04DX003 (ip), vehicle: Klucel (hydroxypropylcellulose) (HPC)) was 100 % of control.

In the case of `O=C(c1cccnc1)C1Cc2ccccc2C1=O` (stereo not drawn), the T/C [11] is reported as 100 % of control, the T/C [6] is reported as 100 % of control and the T/C (dose: 200.0 mg/kg/injection, schedule: Q01DX009 (ip), vehicle: saline with Tween-80) is reported as 100 % of control. The T/C [7] was 100 % of control, the T/C (dose: 400.0 mg/kg/injection, schedule: Q01DX009 (ip), vehicle: saline with Tween-80) was 91 % of control and the T/C [8] was 104 % of control.

`[N-]=[N+]=CC(=O)NCC(=O)NN` was tested, and the T/C (dose: 50.0 mg/kg/injection, schedule: Q01DX010 (ip), vehicle: water) was 120 % of control, the T/C (dose: 200.0 mg/kg/injection, schedule: Q01DX010 (ip), vehicle: water) was 166 % of control and 175 % of control and the T/C (dose: 400.0 mg/kg/injection, schedule: Q01DX010 (ip), vehicle: saline) was 181 % of control.

For `Cn1ncc2c(N)c(C#N)c(=O)[nH]c21`, the T/C (dose: 100.0 mg/kg/injection, schedule: Q01DX001 (ip), vehicle: saline with Tween-80) was 114 % of control.

In the case of `CC1CN=C(c2ccc(NC(=O)Nc3ccc(C(=O)Nc4ccc(C5=NCC(C)N5)cc4)cc3)cc2)N1` (stereo not drawn), the T/C (dose: 66.0 mg/kg/injection, schedule: Q04DX003 (ip), vehicle: saline with Tween-80) is reported as 168 % of control and 209 % of control, the T/C [6] is reported as 90 % of control and 222 % of control and the T/C (dose: 150.0 mg/kg/injection, schedule: Q04DX003 (ip), vehicle: saline with Tween-80) is reported as 100 % of control.

`CCOC(=O)c1ccc(C(=O)OCC)c(Cl)n1` was tested, and the T/C [13] was 112 % of control, the T/C (dose: 25.0 mg/kg/injection, schedule: Q04DX003 (ip), vehicle: Klucel (hydroxypropylcellulose) (HPC)) was 95 % of control and the T/C [14] was 95 % of control. The T/C (dose: 50.0 mg/kg/injection, schedule: Q04DX003 (ip), vehicle: Klucel (hydroxypropylcellulose) (HPC)) was 100 % of control, the T/C [15] was 87 % of control and the T/C [12] was 86 % of control and 91 % of control.

With `Nc1nc(N)c2ncc(/C=C/c3ccc(Cl)c(Cl)c3)nc2n1` the T/C [6] was 91 % of control, the T/C [7] was 90 % of control and the T/C [8] was 108 % of control.

With `Cc1cccc(NC=O)c1` the T/C [9] was 109 % of control, the T/C (dose: 75.0 mg/kg/injection, schedule: Q01DX009 (ip), vehicle: saline with Tween-80) was 113 % of control and the T/C [6] was 115 % of control. For the same molecule, the T/C (dose: 115.0 mg/kg/injection, schedule: Q01DX009 (ip), vehicle: saline with Tween-80) was 104 % of control, the T/C [7] was 96 % of control and the T/C (dose: 225.0 mg/kg/injection, schedule: Q01DX009 (ip), vehicle: saline with Tween-80) was 109 % of control. The T/C (dose: 300.0 mg/kg/injection, schedule: Q01DX009 (ip), vehicle: saline with Tween-80) was 113 % of control and the T/C [8] was 96 % of control.

With `CN(C)NP(=O)(NN(C)C)N(C)C` the T/C (dose: 50.0 mg/kg/injection, schedule: Q04DX003 (ip), vehicle: saline) was 100 % of control, the T/C [4] was 113 % of control and the T/C [5] was 95 % of control.

For `CC(/C=C/c1ccccc1)=N\O`, the T/C (dose: 100.0 mg/kg/injection, schedule: Q04DX003 (ip), vehicle: saline sonified) was 90 % of control, the T/C (dose: 200.0 mg/kg/injection, schedule: Q04DX003 (ip), vehicle: saline sonified) was 90 % of control and the T/C (dose: 400.0 mg/kg/injection, schedule: Q04DX003 (ip), vehicle: saline sonified) was 90 % of control.

For `O=C(CC(O)(C(F)(F)F)C(F)(F)F)c1ccc(F)cc1`, the T/C (dose: 100.0 mg/kg/injection, schedule: Q04DX003 (ip), vehicle: other) was 120 % of control.

For `COc1cccc2c1C(=O)c1c(O)c3c(c(O)c1C2=O)C[C@@](O)(/C(CO)=N/NC(=O)c1ccc(Cl)c(Cl)c1)C[C@@H]3OC1CC(N)C(O)C(C)O1` (stereo partly drawn), the T/C (dose: 0.78 mg/kg/injection, schedule: Q01DX009 (ip), vehicle: water) was 94 % of control, the T/C [16] was 116 % of control and 217 % of control and the T/C [17] was 121 % of control.

For `COc1cc2c(ccc3c4cc(OC)c(OC)cc4c[n+](C)c23)cc1O`, the T/C (dose: 12.5 mg/kg/injection, schedule: Q01DX009 (ip), vehicle: Klucel (hydroxypropylcellulose) (HPC)) was 165 % of control, the T/C [13] was 173 % of control and the T/C [1] was 190 % of control. For the same molecule, the T/C (dose: 40.0 mg/kg/injection, schedule: Q01DX009 (ip), vehicle: saline) was 190 % of control, the T/C (dose: 40.0 mg/kg/injection, schedule: Q04DX003 (ip), vehicle: saline) was 190 % of control and the T/C [14] was 219 % of control. The T/C [2] was 210 % of control, the T/C (dose: 80.0 mg/kg/injection, schedule: Q01DX009 (ip), vehicle: saline) was 210 % of control and the T/C (dose: 80.0 mg/kg/injection, schedule: Q04DX003 (ip), vehicle: saline) was 180 % of control. The T/C [15] was 230 % of control, the T/C [3] was 265 % of control and the T/C (dose: 160.0 mg/kg/injection, schedule: Q01DX009 (ip), vehicle: saline) was 270 % of control. For the same molecule, the T/C (dose: 160.0 mg/kg/injection, schedule: Q04DX003 (ip), vehicle: saline) was 215 % of control, the T/C (dose: 320.0 mg/kg/injection, schedule: Q01DX009 (ip), vehicle: saline) was 205 % of control and the T/C (dose: 320.0 mg/kg/injection, schedule: Q04DX003 (ip), vehicle: saline) was 270 % of control.

For `NC(=O)/C=C/c1c[nH]c2nccnc12`, the T/C [16] was 113 % of control, the T/C (dose: 3.12 mg/kg/injection, schedule: Q04DX003 (ip), vehicle: water) was 106 % of control and the T/C [17] was 108 % of control. For the same molecule, the T/C (dose: 6.25 mg/kg/injection, schedule: Q04DX003 (ip), vehicle: water) was 105 % of control and 112 % of control, the T/C (dose: 12.5 mg/kg/injection, schedule: Q01DX009 (ip), vehicle: water) was 121 % of control and the T/C (dose: 12.5 mg/kg/injection, schedule: Q04DX003 (ip), vehicle: water) was 104 % of control and 106 % of control. The T/C (dose: 25.0 mg/kg/injection, schedule: Q04DX003 (ip), vehicle: water) was 114 % of control.
